The values that follow come from ChEMBL document CHEMBL1149858, “Degradation-promoters of cellular inhibitor of apoptosis protein 1 based on bestatin and actinonin” (Bioorg Med Chem, 2008).

Experiment [1] has as its target Baculoviral IAP repeat-containing protein 2 (Homo sapiens, UniProt Q13490). Put plainly: Promotion of flag-tagged cIAP1 degradation in human HT1080 cells assessed as decrease in cIAPI production after 3 hrs. The class given is cell-based, HT-1080.
The subject of experiment [2] is HT-1080. Nature of the experiment: Enhancement of camptothecin-induced apoptosis of human HT1080 cells at 10 uM. The class given is functional, cell-based.
In experiment [3] the test system is HT-1080. Put plainly: Enhancement of anti-Fas antibody CH11-induced apoptosis of human HT1080 cells at 30 uM after 24 hrs. The class given is functional, cell-based.
Experiment [4] relates to HT-1080. Put plainly: Enhancement of actinomycin D-induced apoptosis of human HT1080 cells at 10 uM. The class given is functional, cell-based.
The subject of experiment [5] is HT-1080. Nature of the experiment: Enhancement of cisplatin-induced apoptosis of human HT1080 cells at 10 uM. The format is functional, cell-based.
The subject of experiment [6] is HT-1080. Nature of the experiment: Enhancement of etoposide-induced apoptosis of human HT1080 cells at 10 uM. The format is functional, cell-based.

pIC50: −log10 of the molar value. Calls of active or inactive are those of the source. The rule behind the calls is not given here.

Baculoviral IAP repeat-containing protein 2, sequence (Q13490 whole entry): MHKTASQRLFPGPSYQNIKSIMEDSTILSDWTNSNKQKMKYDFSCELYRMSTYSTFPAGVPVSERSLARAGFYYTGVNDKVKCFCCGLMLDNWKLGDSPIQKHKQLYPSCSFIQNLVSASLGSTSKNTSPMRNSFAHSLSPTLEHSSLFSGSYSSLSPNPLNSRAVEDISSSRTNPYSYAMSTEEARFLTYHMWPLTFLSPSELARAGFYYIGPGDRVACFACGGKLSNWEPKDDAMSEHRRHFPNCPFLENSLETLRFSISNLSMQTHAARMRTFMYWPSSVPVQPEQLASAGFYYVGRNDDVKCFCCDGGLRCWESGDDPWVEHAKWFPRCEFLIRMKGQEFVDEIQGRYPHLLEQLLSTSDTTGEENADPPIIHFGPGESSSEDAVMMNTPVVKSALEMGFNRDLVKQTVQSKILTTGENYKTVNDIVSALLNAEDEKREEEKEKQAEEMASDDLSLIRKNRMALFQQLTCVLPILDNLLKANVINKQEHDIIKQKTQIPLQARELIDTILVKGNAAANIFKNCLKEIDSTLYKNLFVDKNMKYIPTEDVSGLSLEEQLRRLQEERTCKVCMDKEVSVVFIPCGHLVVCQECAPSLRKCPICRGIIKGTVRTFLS

As to `CCCCC[C@H](CC(=O)NO)C(=O)N[C@H](C(=O)OC)C(C)(C)C`, in experiment [1], the pIC50 is under 4.70.

As to `COC(=O)[C@H](CC(C)C)NC(=O)[C@H](N)CC(=O)NO`, in experiment [1] (HT-1080), the result was inactive.

As to `COC(=O)[C@H](CC(C)C)NC(=O)[C@@H](O)[C@H](N)Cc1ccccc1`, the result in the experiment with HT-1080 [2], in the experiment with HT-1080 [3], with HT-1080 [4], in the experiment with HT-1080 [5] and with HT-1080 [6] was Active.

On to `CCCCC[C@H](CC(=O)NO)C(=O)N[C@@H](C)C(=O)OC`, for which the result with HT-1080 [2], with HT-1080 [4], in the experiment on HT-1080 [5] and with HT-1080 [6] was Active.

The pIC50 is the IC50 on a negative log10 scale, so that one unit is a factor of ten.
